According to patent US8828696B2, “Use of Penicillin G Procaine as a selective antimicrobial agent in the production of alcohol by fermentation” (Lallemand Specialites, Inc, priority 2008, dated 2014):

Tests used:
Lactobacillus brevis = test: Bacterial inhibition test; format: cell-based; design: key to bacterial growth in inhibition test: successful test corresponding to no growth is represented as (=); barely discernable growth is represented as (±); easily noticeable bacterial growth is represented as (+)
Description: (§1) To directly measure the efficacy of Penicillin G Procaine and Penicillin G Potassium a bacterial inhibition test was designed using industrial isolates and chosen ATCC strains. The inhibition testing was spread over 0.1 ppm to 5.0 ppm for the Lactobacillus fermentum and 1.0 ppm to 5.0 ppm for Lactobacillus brevis species of bacteria due to the lack of response of Lactobacillus brevis at lower concentrations. […] The strains used were two isolates of Lactobacillus fermentum and 2 isolates of Lactobacillus brevis. The Lactobacillus fermentum series contained both an industry derived isolate Ind 1 and an ATCC strain while the Lactobacillus brevis series comprised of two isolates, Ind 1 and Ind 43 derived from the ethanol plants. The inhibition test plates were set in triplicate and read at 12 hour intervals up to 48 hours of test endpoint. The results below represent the mode average of the outcome from the triplicate inhibitory test sets for each trial. Table 11 lists the Lactobacillus fermentum and the Lactobacillus brevis results of the inhibition testing as follows: successful test corresponding to no growth is represented as (=), barely discernable growth is represented as (±) and easily noticeable bacterial growth is represented as (+). The set of control tests depict (=) control as just broth and (+) control as just broth with bacteria but without any antibiotic.
(§2) The trial was set up as follows:
(§3) • 1. Weigh out 0.1 g of each sample to be tested into a 15 ml centrifuge tube. • 2. Dissolve sample into 10 ml sterile water. […] Add antibiotic to clean tube, add 2 ml water. • b. Vortex, if antibiotic goes into solution add water for final volume of 10 ml. • c. […] Vortex until all material is in solution. • 3. Vortex the solutions to make sure that they are well mixed. • 4. Filter the solutions through a 0.2 μm syringe filter into a second labeled sterile centrifuge tube. • 5. Add antibiotic solution to MRS Broth for a final volume of 10 ml at the test concentration for each antibiotic. • 6. Mix organism solutions and add 2 μl to each of 3 wells of a 24 well plate. If tubes are used add the 2 μl to each of three tubes for each antibiotic. • 7. Transfer 1 ml of the antibiotic-broth solution to each well containing bacteria. • 8. Recap remaining antibiotic solution and return the tube to the tube rack. This tube will become the negative control for each dilution created. • 9. Add four μl of each bacterial culture to another set of wells and add […] of broth without antibiotics. These wells will be the positive controls. • 10. Incubate plates and tubes at 33 C for 48 hours, examining all samples at 24 hours for growth. Any turbidity detected should be a result of bacterial growth.

Lactobacillus fermentum = test: Bacterial inhibition test; format: cell-based; design: key: successful test corresponding to no growth is represented as (=); barely discernable growth is represented as (±); easily noticeable bacterial growth is represented as (+)
Description: as §1, §2, §3

## CC1(C)S[C@@H]2[C@H](NC(=O)Cc3ccccc3)C(=O)N2[C@H]1C(=O)[O-].[K+] [Penicillin G Potassium]
Lactobacillus brevis; Ind 1 L. brevis, 1 ppm, Inc Time 12
  bacterial growth in inhibition test: ±
Lactobacillus brevis; Ind 1 L. brevis, 1 ppm, Inc Time 24
  bacterial growth in inhibition test: +
Lactobacillus brevis; Ind 1 L. brevis, 1 ppm, Inc Time 36
  bacterial growth in inhibition test: +
Lactobacillus brevis; Ind 1 L. brevis, 1 ppm, Inc Time 48
  bacterial growth in inhibition test: +
Lactobacillus brevis; Ind 1 L. brevis, 2 ppm, Inc Time 12
  bacterial growth in inhibition test: ±
Lactobacillus brevis; Ind 1 L. brevis, 2 ppm, Inc Time 24
  bacterial growth in inhibition test: +
Lactobacillus brevis; Ind 1 L. brevis, 2 ppm, Inc Time 36
  bacterial growth in inhibition test: +
Lactobacillus brevis; Ind 1 L. brevis, 2 ppm, Inc Time 48
  bacterial growth in inhibition test: +
Lactobacillus brevis; Ind 1 L. brevis, 3 ppm, Inc Time 12
  bacterial growth in inhibition test: ±
Lactobacillus brevis; Ind 1 L. brevis, 3 ppm, Inc Time 24
  bacterial growth in inhibition test: +
Lactobacillus brevis; Ind 1 L. brevis, 3 ppm, Inc Time 36
  bacterial growth in inhibition test: +
Lactobacillus brevis; Ind 1 L. brevis, 3 ppm, Inc Time 48
  bacterial growth in inhibition test: +
Lactobacillus brevis; Ind 1 L. brevis, 4 ppm, Inc Time 12
  bacterial growth in inhibition test: ±
Lactobacillus brevis; Ind 1 L. brevis, 4 ppm, Inc Time 24
  bacterial growth in inhibition test: +
Lactobacillus brevis; Ind 1 L. brevis, 4 ppm, Inc Time 36
  bacterial growth in inhibition test: +
Lactobacillus brevis; Ind 1 L. brevis, 4 ppm, Inc Time 48
  bacterial growth in inhibition test: +
Lactobacillus brevis; Ind 1 L. brevis, 5 ppm, Inc Time 12
  bacterial growth in inhibition test: =
Lactobacillus brevis; Ind 1 L. brevis, 5 ppm, Inc Time 24
  bacterial growth in inhibition test: =
Lactobacillus brevis; Ind 1 L. brevis, 5 ppm, Inc Time 36
  bacterial growth in inhibition test: ±
Lactobacillus brevis; Ind 1 L. brevis, 5 ppm, Inc Time 48
  bacterial growth in inhibition test: +
Lactobacillus brevis; Ind 43 L. brevis, 1 ppm, Inc Time 12
  bacterial growth in inhibition test: =
Lactobacillus brevis; Ind 43 L. brevis, 1 ppm, Inc Time 24
  bacterial growth in inhibition test: +
Lactobacillus brevis; Ind 43 L. brevis, 1 ppm, Inc Time 36
  bacterial growth in inhibition test: +
Lactobacillus brevis; Ind 43 L. brevis, 1 ppm, Inc Time 48
  bacterial growth in inhibition test: +
Lactobacillus brevis; Ind 43 L. brevis, 2 ppm, Inc Time 12
  bacterial growth in inhibition test: =
Lactobacillus brevis; Ind 43 L. brevis, 2 ppm, Inc Time 24
  bacterial growth in inhibition test: +
Lactobacillus brevis; Ind 43 L. brevis, 2 ppm, Inc Time 36
  bacterial growth in inhibition test: +
Lactobacillus brevis; Ind 43 L. brevis, 2 ppm, Inc Time 48
  bacterial growth in inhibition test: +
Lactobacillus brevis; Ind 43 L. brevis, 3 ppm, Inc Time 12
  bacterial growth in inhibition test: =
Lactobacillus brevis; Ind 43 L. brevis, 3 ppm, Inc Time 24
  bacterial growth in inhibition test: +
Lactobacillus brevis; Ind 43 L. brevis, 3 ppm, Inc Time 36
  bacterial growth in inhibition test: +
Lactobacillus brevis; Ind 43 L. brevis, 3 ppm, Inc Time 48
  bacterial growth in inhibition test: +
Lactobacillus brevis; Ind 43 L. brevis, 4 ppm, Inc Time 12
  bacterial growth in inhibition test: =
Lactobacillus brevis; Ind 43 L. brevis, 4 ppm, Inc Time 24
  bacterial growth in inhibition test: ±
Lactobacillus brevis; Ind 43 L. brevis, 4 ppm, Inc Time 36
  bacterial growth in inhibition test: ±
Lactobacillus brevis; Ind 43 L. brevis, 4 ppm, Inc Time 48
  bacterial growth in inhibition test: +
Lactobacillus brevis; Ind 43 L. brevis, 5 ppm, Inc Time 12
  bacterial growth in inhibition test: =
Lactobacillus brevis; Ind 43 L. brevis, 5 ppm, Inc Time 24
  bacterial growth in inhibition test: ±
Lactobacillus brevis; Ind 43 L. brevis, 5 ppm, Inc Time 36
  bacterial growth in inhibition test: ±
Lactobacillus brevis; Ind 43 L. brevis, 5 ppm, Inc Time 48
  bacterial growth in inhibition test: +
Lactobacillus fermentum; ATCC L. fermentum, 0.1 ppm, Inc Time 12
  bacterial growth in inhibition test: =
Lactobacillus fermentum; ATCC L. fermentum, 0.1 ppm, Inc Time 24
  bacterial growth in inhibition test: =
Lactobacillus fermentum; ATCC L. fermentum, 0.1 ppm, Inc Time 36
  bacterial growth in inhibition test: ±
Lactobacillus fermentum; ATCC L. fermentum, 0.1 ppm, Inc Time 48
  bacterial growth in inhibition test: ±
Lactobacillus fermentum; ATCC L. fermentum, 0.3 ppm, Inc Time 12
  bacterial growth in inhibition test: =
Lactobacillus fermentum; ATCC L. fermentum, 0.3 ppm, Inc Time 24
  bacterial growth in inhibition test: =
Lactobacillus fermentum; ATCC L. fermentum, 0.3 ppm, Inc Time 36
  bacterial growth in inhibition test: =
Lactobacillus fermentum; ATCC L. fermentum, 0.3 ppm, Inc Time 48
  bacterial growth in inhibition test: =
Lactobacillus fermentum; ATCC L. fermentum, 0.5 ppm, Inc Time 12
  bacterial growth in inhibition test: =
Lactobacillus fermentum; ATCC L. fermentum, 0.5 ppm, Inc Time 24
  bacterial growth in inhibition test: =
Lactobacillus fermentum; ATCC L. fermentum, 0.5 ppm, Inc Time 36
  bacterial growth in inhibition test: =
Lactobacillus fermentum; ATCC L. fermentum, 0.5 ppm, Inc Time 48
  bacterial growth in inhibition test: =
Lactobacillus fermentum; ATCC L. fermentum, 1 ppm, Inc Time 12
  bacterial growth in inhibition test: =
Lactobacillus fermentum; ATCC L. fermentum, 1 ppm, Inc Time 24
  bacterial growth in inhibition test: =
Lactobacillus fermentum; ATCC L. fermentum, 1 ppm, Inc Time 36
  bacterial growth in inhibition test: =
Lactobacillus fermentum; ATCC L. fermentum, 1 ppm, Inc Time 48
  bacterial growth in inhibition test: =
Lactobacillus fermentum; ATCC L. fermentum, 5 ppm, Inc Time 12
  bacterial growth in inhibition test: =
Lactobacillus fermentum; ATCC L. fermentum, 5 ppm, Inc Time 24
  bacterial growth in inhibition test: =
Lactobacillus fermentum; ATCC L. fermentum, 5 ppm, Inc Time 36
  bacterial growth in inhibition test: =
Lactobacillus fermentum; ATCC L. fermentum, 5 ppm, Inc Time 48
  bacterial growth in inhibition test: =
Lactobacillus fermentum; Ind 1 L. fermentum, 0.1 ppm, Inc Time 12
  bacterial growth in inhibition test: =
Lactobacillus fermentum; Ind 1 L. fermentum, 0.1 ppm, Inc Time 24
  bacterial growth in inhibition test: ±
Lactobacillus fermentum; Ind 1 L. fermentum, 0.1 ppm, Inc Time 36
  bacterial growth in inhibition test: ±
Lactobacillus fermentum; Ind 1 L. fermentum, 0.1 ppm, Inc Time 48
  bacterial growth in inhibition test: ±
Lactobacillus fermentum; Ind 1 L. fermentum, 0.3 ppm, Inc Time 12
  bacterial growth in inhibition test: =
Lactobacillus fermentum; Ind 1 L. fermentum, 0.3 ppm, Inc Time 24
  bacterial growth in inhibition test: =
Lactobacillus fermentum; Ind 1 L. fermentum, 0.3 ppm, Inc Time 36
  bacterial growth in inhibition test: ±
Lactobacillus fermentum; Ind 1 L. fermentum, 0.3 ppm, Inc Time 48
  bacterial growth in inhibition test: ±
Lactobacillus fermentum; Ind 1 L. fermentum, 0.5 ppm, Inc Time 12
  bacterial growth in inhibition test: =
Lactobacillus fermentum; Ind 1 L. fermentum, 0.5 ppm, Inc Time 24
  bacterial growth in inhibition test: =
Lactobacillus fermentum; Ind 1 L. fermentum, 0.5 ppm, Inc Time 36
  bacterial growth in inhibition test: =
Lactobacillus fermentum; Ind 1 L. fermentum, 0.5 ppm, Inc Time 48
  bacterial growth in inhibition test: =
Lactobacillus fermentum; Ind 1 L. fermentum, 1.0 ppm, Inc Time 12
  bacterial growth in inhibition test: =
Lactobacillus fermentum; Ind 1 L. fermentum, 1.0 ppm, Inc Time 24
  bacterial growth in inhibition test: =
Lactobacillus fermentum; Ind 1 L. fermentum, 1.0 ppm, Inc Time 36
  bacterial growth in inhibition test: =
Lactobacillus fermentum; Ind 1 L. fermentum, 1.0 ppm, Inc Time 48
  bacterial growth in inhibition test: =
Lactobacillus fermentum; Ind 1 L. fermentum, 5.0 ppm, Inc Time 12
  bacterial growth in inhibition test: =
Lactobacillus fermentum; Ind 1 L. fermentum, 5.0 ppm, Inc Time 24
  bacterial growth in inhibition test: =
Lactobacillus fermentum; Ind 1 L. fermentum, 5.0 ppm, Inc Time 36
  bacterial growth in inhibition test: =
Lactobacillus fermentum; Ind 1 L. fermentum, 5.0 ppm, Inc Time 48
  bacterial growth in inhibition test: =
